Test results as given in patent US20230277630A1, “METHODS AND COMPOSITIONS FOR TREATING AMYOTROPHIC LATERAL SCLEROSIS” (Amylyx Pharmaceuticals, Inc., priority 2022, published 2023).
Values joined by “and” are separate entries in the source; they are usually repeats but may differ in a detail not shown here. Identical values can stand only once.

What was measured:
CYP2C9 = CYP2C9 (Homo sapiens, UniProt P11712); assay: in vitro; settings: microsomes; for % of Control Enzyme Activity: 30 min, pH 7.4
Chain of CYP2C9 (P11712 whole entry, canonical isoform): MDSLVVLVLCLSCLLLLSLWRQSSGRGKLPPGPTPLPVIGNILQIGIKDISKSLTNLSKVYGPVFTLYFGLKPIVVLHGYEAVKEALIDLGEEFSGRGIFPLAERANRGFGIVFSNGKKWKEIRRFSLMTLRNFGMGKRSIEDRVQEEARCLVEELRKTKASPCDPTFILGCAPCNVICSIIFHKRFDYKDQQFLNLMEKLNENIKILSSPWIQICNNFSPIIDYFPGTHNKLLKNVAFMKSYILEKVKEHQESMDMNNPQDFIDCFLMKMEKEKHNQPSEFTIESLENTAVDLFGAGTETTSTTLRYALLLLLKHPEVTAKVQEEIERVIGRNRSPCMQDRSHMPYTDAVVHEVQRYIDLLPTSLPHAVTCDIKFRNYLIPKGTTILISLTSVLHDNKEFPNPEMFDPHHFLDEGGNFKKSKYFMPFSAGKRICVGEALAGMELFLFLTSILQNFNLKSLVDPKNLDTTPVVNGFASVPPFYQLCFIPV
Method: CYP TDI was evaluated by a 30-minute pre-incubation of the TA with HLM in the presence and absence of NADPH followed by the CYP enzyme activity assay. […] The total organic solvent content in the final incubation was less than 1% (DMSO ≤0.1%, other organic solvent ≤1%). The CYP reactions were initiated by adding an individual CYP probe substrate with (when NADPH was not added in the pre-incubation step) or without (when NADPH was added in the pre-incubation step) the addition of NADPH (1 mM). The reaction mixture was incubated at 37° C. for 10-30 minutes depending on the individual CYP isoform (Table 24). The reaction was terminated with ice-cold acetonitrile (ACN) containing an internal standard (IS, stable isotope-labeled CYP probe metabolite). Negative (vehicle) controls were conducted using the incubation mixture without the TA. Positive controls were performed in parallel using known CYP time-dependent inhibitors. […] The formation of individual CYP probe metabolites was determined by LC-MS/MS.
The enzyme activity was expressed as the peak area ratio of CYP probe metabolite to IS, measured by LC-MS/MS.

BCRP = target: T1, BCRP (Homo sapiens, UniProt Q9UNQ0); assay: BCRP IC50 assessment, bidirectional cladribine transport in BCRP-MDCK cells; settings: BCRP-MDCK cells, 10 μM cladribine alone or + TUDCA/PB Solution or 0.5 μM Ko143; single replicates
T1 sequence (Q9UNQ0 1-655): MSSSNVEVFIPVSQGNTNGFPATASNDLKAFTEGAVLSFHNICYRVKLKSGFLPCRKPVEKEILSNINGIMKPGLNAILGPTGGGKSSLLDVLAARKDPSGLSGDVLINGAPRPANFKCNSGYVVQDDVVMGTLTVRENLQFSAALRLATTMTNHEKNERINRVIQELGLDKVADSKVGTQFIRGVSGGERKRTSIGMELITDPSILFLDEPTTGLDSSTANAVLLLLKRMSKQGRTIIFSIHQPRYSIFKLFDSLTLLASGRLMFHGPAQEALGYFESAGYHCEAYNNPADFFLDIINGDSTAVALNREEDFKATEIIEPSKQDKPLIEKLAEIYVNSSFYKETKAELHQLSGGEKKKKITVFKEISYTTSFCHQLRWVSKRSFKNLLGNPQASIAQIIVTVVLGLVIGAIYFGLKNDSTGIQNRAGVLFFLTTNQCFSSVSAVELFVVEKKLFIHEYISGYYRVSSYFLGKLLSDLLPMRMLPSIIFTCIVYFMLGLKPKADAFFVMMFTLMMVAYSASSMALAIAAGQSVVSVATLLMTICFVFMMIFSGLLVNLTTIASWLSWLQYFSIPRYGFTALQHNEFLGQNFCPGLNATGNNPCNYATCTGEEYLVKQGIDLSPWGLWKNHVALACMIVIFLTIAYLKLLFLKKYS
Method: (§1) After 30 minutes, the pre-incubation solution was aspirated.

P-gp and BCRP = P-gp and BCRP substrate assessment, bidirectional permeability in C2BBe1 cells; settings: for AP-to-BL Papp / BL-to-AP Papp / Papp A→B at 10 µM / Papp B→A at 10 µM: C2BBe1 cells, 10 μM probe; for Papp A→B at 10 µM / recovery at 10 μM / Papp B→A at 10 µM: human; for Papp A→B at 10 µM: Caco-2, pH 7.4, AP-to-BL Papp; for Papp B→A at 10 µM: Caco-2, pH 7.4, BL-to-AP Papp
Method: The P-gp and BCRP substrate assessment was conducted in C2BBe1 cell monolayers. […] LY was co-dosed with each dosing solution at a nominal concentration of 200 μM.
The cell culture medium was aspirated, and the cell monolayers were rinsed once with HBSSg_7.4. […] For receiver samples, aliquots (300 μL) were taken at pre-selected time points. […] For donor samples, aliquots (50 μL) were taken at pre-selected time points without replacement.

P-gp [1] = target: T2, P-gp (Homo sapiens, UniProt P08183); assay: P-gp IC50 assessment, bidirectional digoxin transport in C2BBe1 cells
T2 sequence (P08183 whole entry): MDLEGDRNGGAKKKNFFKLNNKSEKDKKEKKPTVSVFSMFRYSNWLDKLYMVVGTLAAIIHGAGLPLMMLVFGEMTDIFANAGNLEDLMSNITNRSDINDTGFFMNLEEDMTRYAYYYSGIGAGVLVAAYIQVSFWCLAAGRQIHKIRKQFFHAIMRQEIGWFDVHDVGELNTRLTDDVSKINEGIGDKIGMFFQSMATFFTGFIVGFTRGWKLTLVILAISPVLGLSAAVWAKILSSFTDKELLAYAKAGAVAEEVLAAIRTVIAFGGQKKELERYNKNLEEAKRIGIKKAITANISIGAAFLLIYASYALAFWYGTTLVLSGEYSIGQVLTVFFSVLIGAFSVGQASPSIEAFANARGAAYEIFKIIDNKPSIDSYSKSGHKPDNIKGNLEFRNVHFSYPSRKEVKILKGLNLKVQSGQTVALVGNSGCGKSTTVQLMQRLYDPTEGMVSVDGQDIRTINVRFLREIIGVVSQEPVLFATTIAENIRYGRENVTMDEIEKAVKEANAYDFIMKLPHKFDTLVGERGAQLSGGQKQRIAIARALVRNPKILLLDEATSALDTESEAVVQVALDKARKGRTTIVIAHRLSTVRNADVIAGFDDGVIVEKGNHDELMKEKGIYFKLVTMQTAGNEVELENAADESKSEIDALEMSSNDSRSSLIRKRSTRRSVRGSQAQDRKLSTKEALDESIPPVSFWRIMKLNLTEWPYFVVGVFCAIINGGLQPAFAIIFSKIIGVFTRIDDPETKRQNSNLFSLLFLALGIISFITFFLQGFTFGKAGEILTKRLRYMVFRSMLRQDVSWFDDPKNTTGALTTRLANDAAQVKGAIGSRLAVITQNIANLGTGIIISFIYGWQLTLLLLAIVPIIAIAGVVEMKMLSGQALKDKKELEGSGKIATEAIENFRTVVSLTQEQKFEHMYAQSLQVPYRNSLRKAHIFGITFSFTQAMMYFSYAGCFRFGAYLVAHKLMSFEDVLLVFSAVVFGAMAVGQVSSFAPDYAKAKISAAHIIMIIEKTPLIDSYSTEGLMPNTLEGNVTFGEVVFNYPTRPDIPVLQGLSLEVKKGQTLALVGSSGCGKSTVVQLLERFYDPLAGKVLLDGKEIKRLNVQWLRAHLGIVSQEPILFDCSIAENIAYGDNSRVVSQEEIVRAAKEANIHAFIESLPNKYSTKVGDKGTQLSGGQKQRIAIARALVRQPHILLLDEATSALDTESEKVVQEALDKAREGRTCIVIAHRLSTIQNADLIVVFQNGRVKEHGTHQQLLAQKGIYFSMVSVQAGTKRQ
Method: as §1

P-gp [2] = target: T2, P-gp; assay: P-gp IC50 assessment, bidirectional digoxin transport in MDR1-MDCK cells
[3] = pH 7.4, % of Control Enzyme Activity
[4] = batch used with Sol_1, Sol_3, and Sol_4, single replicates
[5] = batch used with Sol_2, single replicates
[6] = batch used with Sol_1, Sol_3, and Sol_4, Average

`O=C(O)COc1ccc(C(=O)c2cccs2)c(Cl)c1Cl` [Tienilic acid] was tested. Which “% of Control Enzyme Activity” value (CYP2C9; 10 µM) did it give?
Its value is 11.7%.

And the “% of Control Enzyme Activity” value (CYP2C9; 30 µM)?
Its value is 9.64%.

And the activity at 30 min, 10 µM (CYP2C9; [3])?
The activity at 30 min, 10 µM was 22.2%.

And the activity at 30 min, 30 µM (CYP2C9; [3])?
Its activity at 30 min, 30 µM is 16.2%.

With `Nc1nc(Cl)nc2c1ncn2[C@H]1C[C@H](O)[C@@H](CO)O1` [cladribine] as the compound, how does the “BL-to-AP Papp of cladribine” value (BCRP) read?
The value was 15.5 10^−6 cm/s.

And the “AP-to-BL Papp” value (P-gp and BCRP; [4])?
Its value is 0.549 10^−6 cm/s and 0.580 10^−6 cm/s.

What about the “BL-to-AP Papp” value (P-gp and BCRP; [4]) of the same compound?
Its value is 13.3 10^−6 cm/s and 13.0 10^−6 cm/s.

And the “AP-to-BL Papp” value (P-gp and BCRP; [5])?
Its value is 0.612 10^−6 cm/s and 0.554 10^−6 cm/s.

And the “BL-to-AP Papp” value (P-gp and BCRP; [5])?
Its value is 12.4 10^−6 cm/s and 13.1 10^−6 cm/s.

What about the Papp A→B at 10 µM (P-gp and BCRP; [6]) of the same compound?
Its Papp A→B at 10 µM is 0.5 ×10⁻⁶ cm/s.

And the Papp A→B at 10 µM (P-gp and BCRP; [4])?
The Papp A→B at 10 µM was 0.37 ×10⁻⁶ cm/s.

What about the Papp A→B at 10 µM (P-gp and BCRP; batch used with Sol_2, Average) of the same compound?
Its Papp A→B at 10 µM is 0.648 ×10⁻⁶ cm/s.

What about the Papp A→B at 10 µM (P-gp and BCRP; [5]) of the same compound?
The Papp A→B at 10 µM was 0.778 ×10⁻⁶ cm/s.

What about the recovery at 10 μM (P-gp and BCRP; Caco-2, pH 7.4, AP-to-BL Recovery) of the same compound?
Its recovery at 10 μM is 95.3%.

And the Papp B→A at 10 µM (P-gp and BCRP; [6])?
Its Papp B→A at 10 µM is 13.5 ×10⁻⁶ cm/s.

What about the Papp B→A at 10 µM (P-gp and BCRP; [4]) of the same compound?
The Papp B→A at 10 µM was 14.1 ×10⁻⁶ cm/s.

What about the Papp B→A at 10 µM (P-gp and BCRP; batch used with Sol_2, Average) of the same compound?
Its Papp B→A at 10 µM is 12.8 ×10⁻⁶ cm/s.

And the Papp B→A at 10 µM (P-gp and BCRP; [5])?
Its Papp B→A at 10 µM is 12.8 ×10⁻⁶ cm/s.

And the recovery at 10 μM (P-gp and BCRP; Caco-2, pH 7.4, BL-to-AP Recovery)?
The recovery at 10 μM was 92.9%.

`C/C=C/C[C@@H](C)C(=O)[C@H]1C(=O)N[C@@H](C(C)C)C(=O)N(C)CC(=O)N(C)[C@@H](CC(C)C)C(=O)N[C@@H](C(C)C)C(=O)N(C)[C@@H](CC(C)C)C(=O)N[C@@H](C)C(=O)N[C@H](C)C(=O)N(C)[C@@H](CC(C)C)C(=O)N(C)[C@@H](CC(C)C)C(=O)N(C)[C@@H](C(C)C)C(=O)N1C` [valspodar, reference compound] was tested. Which “Percent Inhibition (P-gp, digoxin efflux)” value (P-gp [1]; C2BBe1 cells, 10 μM digoxin + TUDCA/PB Solution or 1 μM valspodar) did it give?
Its value is 99.3%.

And the inhibition at 1 μM (P-gp [1]; human, pH 7.4)?
The inhibition at 1 μM was 99.3%.

And the “Percent Inhibition (P-gp)” value (P-gp [2]; 10 μM Digoxin + 1 μM Valspodar, MDR1-MDCK cells)?
The value was 99.9%.

What about the inhibition at 1 μM (P-gp [2]; human, MDR1-MDCK cell monolayers on Transwell plates, pH 7.4, probe digoxin (10 μM)) of the same compound?
The inhibition at 1 μM was 99.9%.
